Structures are written as SMILES.

For data set [1], the system named is MUTU-1 Burkitt lymphoma cell line (EBV+). The data set is described as follows: cells. The conditions noted are these: Mutu-1, 24 h; for IC50: read-out: IC50 MUTU-I 24 h; for viability at 1 µM: read-out: MUTU-1 Cell Viability % 1 μM, 1 μM, 24 h; for viability at 10 µM: read-out: MUTU-1 Cell Viability % 10 μM, 10 μM, 24 h.
The test system of data set [2] is DG-75 Burkitt lymphoma cell line (EBV−, chemoresistant). Nature of the data set: cells. The conditions noted are these: Homo sapiens, DG-75, 48 h; for viability at 1 µM: read-out: DG-75 Cell Viability % 1 μM, 1 μM, 48 h; for viability at 10 µM: read-out: DG-75 Cell Viability % 10 μM, 10 μM, 48 h.

`COc1cc(N2C(=O)C3C4c5ccccc5C(/C=C/[N+](=O)[O-])(c5ccccc54)C3C2=O)cc(OC)c1OC` (stereo not drawn) [Compound 16f, (E)-9-(2-Nitrovinyl)-13-(3,4,5-trimethoxyphenyl)-9,10-dihydro-9,10-[3,4]epipyrroloanthracene-12,14-dione] registered a melting point of 270 to 272 °C. Further, in data set [1], the IC50 was found to be 240 nM, the viability at 1 µM was 1.8% and the viability at 10 µM turned out to be 1.1%. In data set [2], the viability at 1 µM was 25.6% and the viability at 10 µM stood at 0.46%.

With `O=C1C2C3c4ccccc4C(/C=C/[N+](=O)[O-])(c4ccccc43)C2C(=O)N1c1ccc(Br)cc1` (stereo not drawn) [Compound 16g, (E)-13-(4-Bromophenyl)-9-(2-nitrovinyl)-9,10-dihydro-9,10-[3,4]epipyrroloanthracene-12,14-dione], the melting point fell in the range of 267 to 268 °C. Further, in data set [1], the IC50 was found to be 220 nM, the viability at 1 µM is 2.1% and the viability at 10 µM is 1.1%. In data set [2], the viability at 1 µM is 28.2% and the viability at 10 µM is 0.55%.

`COC(=O)c1ccc(N2C(=O)C3C4c5ccccc5C(/C=C/[N+](=O)[O-])(c5ccccc54)C3C2=O)cc1` (stereo not drawn) [Compound 16h, Methyl (E)-4-(9-(2-nitrovinyl)-12,14-dioxo-9,10-dihydro-9,10-[3,4]epipyrroloanthracen-13-yl)benzoate]: the melting point was 254 to 255 °C. In data set [1], the IC50 worked out at 200 nM, the viability at 1 µM came to 2.3% and the viability at 10 µM stood at 0.79%. Besides, in data set [2], the viability at 1 µM was 20.8% and the viability at 10 µM was found to be 0.18%.

On to `O=C(c1ccccc1)c1ccc(N2C(=O)C3C4c5ccccc5C(/C=C/[N+](=O)[O-])(c5ccccc54)C3C2=O)cc1` (stereo not drawn) [Compound 16i, (E)-13-(4-Benzoylphenyl)-9-(2-nitrovinyl)-9,10-dihydro-9,10-[3,4]epipyrroloanthracene-12,14-dione], for which the melting point was in the range of 232 to 234 °C. Moreover, in data set [1], the IC50 stood at 240 nM, the viability at 1 µM came out at 2% and the viability at 10 µM amounted to 1.2%. Also, in data set [2], the viability at 1 µM worked out at 77.5% and the viability at 10 µM stood at 2.7%.

With `COc1cc(OC)cc(N2C(=O)C3C4c5ccccc5C(/C=C/[N+](=O)[O-])(c5ccccc54)C3C2=O)c1` (stereo not drawn) [Compound 16j, (E)-13-(3,5-Dimethoxyphenyl)-9-(2-nitrovinyl)-9,10-dihydro-9,10-[3,4]epipyrroloanthracene-12,14-dione], the melting point was 268 to 271 °C. Further, in data set [1], the IC50 was found to be 260 nM, the viability at 1 µM came out at 4.2% and the viability at 10 µM was determined as 5.4%. For the same molecule, in data set [2], the viability at 1 µM worked out at 33.5% and the viability at 10 µM stood at 0.16%.

For `O=C1C2C3c4ccccc4C(/C=C/[N+](=O)[O-])(c4ccccc43)C2C(=O)N1c1cccc(Cl)c1` (stereo not drawn) [Compound 16k, (E)-13-(3-Chlorophenyl)-9-(2-nitrovinyl)-9,10-dihydro-9,10-[3,4]epipyrroloanthracene-12,14-dione], the melting point lay in the range of 258 to 261 °C. Besides, in data set [1], the viability at 1 µM was found to be 2.7% and the viability at 10 µM worked out at 0.84%. In addition, in data set [2], the viability at 1 µM came to 69% and the viability at 10 µM is 0%.

Consider `O=C1C2C3c4ccccc4C(/C=C/[N+](=O)[O-])(c4ccccc43)C2C(=O)N1c1ccccc1O` (stereo not drawn) [Compound 16l, (E)-13-(2-Hydroxyphenyl)-9-(2-nitrovinyl)-9,10-dihydro-9,10-[3,4]epipyrroloanthracene-12,14-dione], for which the melting point fell in the range of 203 to 206 °C. For the same molecule, in data set [1], the viability at 1 µM was found to be 2.3% and the viability at 10 µM came to 0.61%. Also, in data set [2], the viability at 1 µM worked out at 59.2% and the viability at 10 µM was 0%.

Turning to `CC(=O)Oc1cccc(N2C(=O)C3C4c5ccccc5C(/C=C/[N+](=O)[O-])(c5ccccc54)C3C2=O)c1` (stereo not drawn) [Compound 16m, (E)-3-(9-(2-Nitrovinyl)-12,14-dioxo-9,10-dihydro-9,10-[3,4]epipyrroloanthracen-13-yl)phenyl acetate], the melting point lay within 246 to 248 °C. For the same molecule, in data set [1], the IC50 was 230 nM, the viability at 1 µM was found to be 2% and the viability at 10 µM is 1.2%. Further, in data set [2], the viability at 1 µM was determined as 35.9% and the viability at 10 µM is 0%.

In turn, `Nc1ccc(N2C(=O)C3C4c5ccccc5C(/C=C/[N+](=O)[O-])(c5ccccc54)C3C2=O)cc1` (stereo not drawn) [Compound 16n, (E)-13-(4-Aminophenyl)-9-(2-nitrovinyl)-9,10-dihydro-9,10-[3,4]epipyrroloanthracene-12,14-dione] registered a melting point of over 300 °C. In data set [1], the half-maximal inhibitory concentration (IC50) was determined as 300 nM, the viability at 1 µM was 1.7% and the viability at 10 µM is 3.7%. Also, in data set [2], the viability at 1 µM came to 20.8% and the viability at 10 µM was determined as 0.18%.

The molecule `C/C(=C\C12c3ccccc3C(c3ccccc31)C1C(=O)N(c3ccccc3)C(=O)C12)[N+](=O)[O-]` (stereo not drawn) [Compound 17a, (E)-9-(2-Nitroprop-1-en-1-yl)-13-phenyl-9,10-dihydro-9,10-[3,4]epipyrroloanthracene-12,14-dione] yielded a melting point of 263 to 266 °C. In data set [1], the viability at 1 µM is 79.8% and the viability at 10 µM was found to be 68.6%. For the same molecule, in data set [2], the viability at 1 µM worked out at 78.3% and the viability at 10 µM worked out at 88.9%.

For the molecule `CC/C(=C\C12c3ccccc3C(c3ccccc31)C1C(=O)N(c3ccccc3)C(=O)C12)[N+](=O)[O-]` (stereo not drawn) [Compound 17b, (E)-9-(2-Nitrobut-1-en-1-yl)-13-phenyl-9,10-dihydro-9,10-[3,4]epipyrroloanthracene-12,14-dione], the melting point was in the range of 259 to 263 °C. In addition, in data set [1], the viability at 1 µM stood at 92.6% and the viability at 10 µM was 83.4%. Besides, in data set [2], the viability at 1 µM came out at 96.4% and the viability at 10 µM was determined as 99.9%.

For `C/C(=C\C12c3ccccc3C(c3ccccc31)C1C(=O)N(c3ccc(Cl)cc3)C(=O)C12)[N+](=O)[O-]` (stereo not drawn) [Compound 17c, (E)-13-(4-Chlorophenyl)-9-(2-nitroprop-1-en-1-yl)-9,10-dihydro-9,10-[3,4]epipyrroloanthracene-12,14-dione], the melting point lay within 298 to 300 °C. For the same molecule, in data set [1], the viability at 1 µM stood at 78% and the viability at 10 µM was determined as 77.6%. Besides, in data set [2], the viability at 1 µM was found to be 96.6% and the viability at 10 µM was found to be 86.3%.

Consider `CC/C(=C\C12c3ccccc3C(c3ccccc31)C1C(=O)N(c3ccc(Cl)cc3)C(=O)C12)[N+](=O)[O-]` (stereo not drawn) [Compound 17d, (E)-13-(4-Chlorophenyl)-9-(2-nitrobut-1-en-1-yl)-9,10-dihydro-9,10-[3,4]epipyrroloanthracene-12,14-dione], for which the melting point lay in the range of 275 to 279 °C. In addition, in data set [1], the viability at 1 µM amounted to 102% and the viability at 10 µM turned out to be 99.9%. In data set [2], the viability at 1 µM is 96.6% and the viability at 10 µM was 78.4%.

As to `CC/C(=C\C12c3ccccc3C(c3ccccc31)C1C(=O)N(c3ccc(OC)cc3)C(=O)C12)[N+](=O)[O-]` (stereo not drawn) [Compound 17f], the melting point lay in the range of 254 to 256 °C. Also, in data set [1], the viability at 1 µM is 86.5% and the viability at 10 µM is 84.5%. For the same molecule, in data set [2], the viability at 1 µM was 91.4% and the viability at 10 µM was 85.1%.

The molecule `C/C(=C\C12c3ccccc3C(Cl)(c3ccccc31)C1C(=O)N(c3ccccc3)C(=O)C12)[N+](=O)[O-]` (stereo not drawn) [Compound 17g, (E)-9-Chloro-10-(2-nitroprop-1-en-1-yl)-13-phenyl-9,10-dihydro-9,10-[3,4]epipyrroloanthracene-12,14-dione] returned a melting point of 268 to 271 °C. Also, in data set [1], the viability at 1 µM turned out to be 88% and the viability at 10 µM came to 78.5%. Also, in data set [2], the viability at 1 µM stood at 85.3% and the viability at 10 µM was 84.3%.

`CC/C(=C\C12c3ccccc3C(Cl)(c3ccccc31)C1C(=O)N(c3ccccc3)C(=O)C12)[N+](=O)[O-]` (stereo not drawn) [Compound 17h, (E)-9-Chloro-10-(2-nitrobut-1-en-1-yl)-13-phenyl-9,10-dihydro-9,10-[3,4]epipyrroloanthracene-12,14-dione]: the melting point fell in the range of 261 to 262 °C. In data set [1], the viability at 1 µM is 107% and the viability at 10 µM was 96.3%. Moreover, in data set [2], the viability at 1 µM is 89.2% and the viability at 10 µM is 90.3%.

As for `O=C1C2C3c4ccccc4C(/C=C/[N+](=O)[O-])(c4ccccc43)C2C(=O)N1Cc1ccccc1` (stereo not drawn) [Compound 17i, (E)-13-Benzyl-9-(2-nitrovinyl)-9,10-dihydro-9,10-[3,4]epipyrroloanthracene-12,14-dione], the melting point fell in the range of 232 to 236 °C. In data set [1], the viability at 1 µM came out at 74.9% and the viability at 10 µM came to 0.86%. Further, in data set [2], the viability at 1 µM is 93.1% and the viability at 10 µM worked out at 0.67%.

On to `C/C(=C\C12c3ccccc3C(c3ccccc31)C1C(=O)N(Cc3ccccc3)C(=O)C12)[N+](=O)[O-]` (stereo not drawn) [Compound 17j, (E)-13-Benzyl-9-(2-nitroprop-1-en-1-yl)-9,10-dihydro-9,10-[3,4]epipyrroloanthracene-12,14-dione], for which the melting point lay within 232 to 236 °C. Moreover, in data set [1], the viability at 1 µM was found to be 94.6% and the viability at 10 µM stood at 85.6%. For the same molecule, in data set [2], the viability at 1 µM was found to be 104% and the viability at 10 µM is 87.9%.

On to `CC/C(=C\C12c3ccccc3C(c3ccccc31)C1C(=O)N(Cc3ccccc3)C(=O)C12)[N+](=O)[O-]` (stereo not drawn) [Compound 17k, (E)-13-Benzyl-9-(2-nitrobut-1-en-1-yl)-9,10-dihydro-9,10-[3,4]epipyrroloanthracene-12,14-dione], for which the melting point was in the range of 188 to 199 °C. Moreover, in data set [1], the viability at 1 µM was determined as 80.4% and the viability at 10 µM was 94%. In data set [2], the viability at 1 µM came to 74.8% and the viability at 10 µM turned out to be 96%.

For orientation: melting point means the temperature, or range, at which the solid turns liquid. Broadly, the IC50 is the concentration needed to halve the response being measured. For orientation: viability means a read-out of living cells in per cent, often relative to untreated cells.

The record behind these values is PMC7168933, “Design, Synthesis and Biochemical Evaluation of Novel Ethanoanthracenes and Related Compounds to Target Burkitt’s Lymphoma” (Pharmaceuticals, 2020).
